According to paper PMC4303209, “A novel phosphatidylinositol 3-kinase (PI3K) inhibitor directs a potent FOXO-dependent, p53-independent cell cycle arrest phenotype characterized by the differential induction of a subset of FOXO-regulated genes” (Breast Cancer Research : BCR, 2014):

System: MCF-7 breast cancer cells
Assay: Microarray gene expression analysis (Agilent whole human genome 4 x 44K; compound vs DMSO, LIMMA log2 fold change)
Type: cell-based
Details: cell cycle genes

Oc1cccc(-c2nc(N3CCOCC3)c3oc4ncccc4c3n2)c1 [PI-103]
TRIAP1 log2FC (Gene 51499): -0.86 | DTL log2FC (Gene 51514): -0.14 | SIRT7 log2FC (Gene 51547): 0.32 | CINP log2FC (Gene 51550): -0.05 | GINS2 log2FC (Gene 51659): -0.80 | NUP54 log2FC (Gene 53371): 0.41 | PELO log2FC (Gene 53918): -0.59 | WNT4 log2FC (Gene 54361): -0.42 | ANLN log2FC (Gene 54443): 0.75 | FBXW5 log2FC (Gene 54461): 0.13 | FAM64A log2FC (Gene 54478): 0.10 | DDX4 log2FC (Gene 54514): -0.13 | BTG4 log2FC (Gene 54766): 0.11 | NDE1 log2FC (Gene 54820): 0.40 | NSUN2 log2FC (Gene 54888): -0.48 | TTC19 log2FC (Gene 54902): 0.67 | TXNL4B log2FC (Gene 54957): 0.28 | BANP log2FC (Gene 54971): 0.16 | AURKAIP1 log2FC (Gene 54998): -0.22 | PHIP log2FC (Gene 55023): 1.07 | USP47 log2FC (Gene 55031): 0.61 | ZWILCH log2FC (Gene 55055): 0.41 | PIWIL2 log2FC (Gene 55124): 0.06 | CEP192 log2FC (Gene 55125): 0.35 | CDCA8 log2FC (Gene 55143): -0.04 | RFWD3 log2FC (Gene 55159): -0.62 | CEP55 log2FC (Gene 55165): 0.99 | CENPQ log2FC (Gene 55166): 0.81 | RIF1 log2FC (Gene 55183): 0.39 | ARL8B log2FC (Gene 55207): 0.45 | RCBTB1 log2FC (Gene 55213): 0.71 | CCDC87 log2FC (Gene 55231): 0.15 | STEAP3 log2FC (Gene 55240): -0.44 | MNS1 log2FC (Gene 55329): 0.91 | MCM10 log2FC (Gene 55388): -0.91 | SMPD3 log2FC (Gene 55512): -0.27 | TRIM36 log2FC (Gene 55521): 0.64 | RBM38 log2FC (Gene 55544): -0.58 | PRR5 log2FC (Gene 55615): 0.45 | PRPF40A log2FC (Gene 55660): 1.01 | CEP72 log2FC (Gene 55722): 0.31 | CHFR log2FC (Gene 55743): -0.11 | NUP133 log2FC (Gene 55746): 0.25 | CCAR1 log2FC (Gene 55749): 0.55 | CDK5RAP2 log2FC (Gene 55755): 0.51 | PCID2 log2FC (Gene 55795): 0.32 | CENPN log2FC (Gene 55839): 0.30 | PPP2R2D log2FC (Gene 55844): -0.17 | HDAC8 log2FC (Gene 55869): -0.36 | PBK log2FC (Gene 55872): 0.46 | BIN3 log2FC (Gene 55909): -0.80 | ERBB2IP log2FC (Gene 55914): 1.07 | RCC2 log2FC (Gene 55920): -0.27 | KLHL9 log2FC (Gene 55958): 0.04 | TEX11 log2FC (Gene 56159): 0.000672 | TDRD1 log2FC (Gene 56165): 0.04 | PARD3 log2FC (Gene 56288): 0.46 | RPRM log2FC (Gene 56475): -0.24 | CYP26B1 log2FC (Gene 56603): 0.03 | SPIRE1 log2FC (Gene 56907): 0.10 | SMARCAD1 log2FC (Gene 56916): 0.55 | PRDM9 log2FC (Gene 56979): 0.0757 | KIF15 log2FC (Gene 56992): 1.30 | PDXP log2FC (Gene 57026): -0.93 | PCBP4 log2FC (Gene 57060): -0.27 | CASC5 log2FC (Gene 57082): 0.12 | PCNP log2FC (Gene 57092): 0.60 | NUP107 log2FC (Gene 57122): 0.63 | CHMP1B log2FC (Gene 57132): 0.39 | PAK7 log2FC (Gene 57144): 0.45 | CSRP2BP log2FC (Gene 57325): 0.27 | TTYH1 log2FC (Gene 57348): -0.09 | BIRC6 log2FC (Gene 57448): 0.14 | MTA3 log2FC (Gene 57504): 0.33 | HACE1 log2FC (Gene 57531): 0.51 | TAOK1 log2FC (Gene 57551): 0.40 | USP37 log2FC (Gene 57695): 0.38 | FANCM log2FC (Gene 57697): 0.48 | CCNB1IP1 log2FC (Gene 57820): 0.84 | RHOU log2FC (Gene 58480): 1.56 | OVOL2 log2FC (Gene 58495): 0.16 | AVPI1 log2FC (Gene 60370): 0.53 | RINT1 log2FC (Gene 60561): 0.44 | FAM111A log2FC (Gene 63901): 0.33 | DMRTC2 log2FC (Gene 63946): -0.00414 | CLSPN log2FC (Gene 63967): -0.11 | TSPYL2 log2FC (Gene 64061): -0.12 | DPEP3 log2FC (Gene 64180): 0.19 | RFWD2 log2FC (Gene 64326): -0.06 | CENPH log2FC (Gene 64946): 0.38 | MRPL41 log2FC (Gene 64975): -0.47 | INTS3 log2FC (Gene 65123): -0.18 | PHACTR4 log2FC (Gene 65979): 0.43 | BOLL log2FC (Gene 66037): -0.012 | MIS12 log2FC (Gene 79003): -0.76 | CENPM log2FC (Gene 79019): 0.04 | NUP37 log2FC (Gene 79023): 0.16 | ZNF655 log2FC (Gene 79027): 0.68 | CENPO log2FC (Gene 79172): -0.71 | E2F8 log2FC (Gene 79733): 0.23 | FBXO31 log2FC (Gene 79791): -0.10 | CSPP1 log2FC (Gene 79848): 0.57 | NEK11 log2FC (Gene 79858): 0.47 | MAP9 log2FC (Gene 79884): 1.08 | NUP85 log2FC (Gene 79902): 0.18 | CEP76 log2FC (Gene 79959): 0.32 | CENPT log2FC (Gene 80152): 0.00794 | DBF4B log2FC (Gene 80174): -0.40 | CEP290 log2FC (Gene 80184): 0.83 | CEP63 log2FC (Gene 80254): 0.71 | CDK5RAP3 log2FC (Gene 80279): 0.0271 | CEP70 log2FC (Gene 80321): 0.58 | TUBB1 log2FC (Gene 81027): -0.33 | NDEL1 log2FC (Gene 81565): -0.13 | FAM83D log2FC (Gene 81610): -0.15 | CAB39L log2FC (Gene 81617): 0.08 | CCNL2 log2FC (Gene 81669): -0.13 | CABLES2 log2FC (Gene 81928): -0.71 | KIF18A log2FC (Gene 81930): 1.18 | SESN2 log2FC (Gene 83667): -0.54 | SETDB2 log2FC (Gene 83852): 1.23 | GSG2 log2FC (Gene 83903): -0.50 | RASSF4 log2FC (Gene 83937): 0.14 | MND1 log2FC (Gene 84057): 0.59 | HORMAD1 log2FC (Gene 84072): 0.40 | USP44 log2FC (Gene 84101): 0.0155 | CEP78 log2FC (Gene 84131): 0.36 | GINS4 log2FC (Gene 84296): -0.47 | RAB11FIP4 log2FC (Gene 84440): 0.56 | LZTS2 log2FC (Gene 84445): 1.13 | BRSK1 log2FC (Gene 84446): 0.0146 | SPIRE2 log2FC (Gene 84501): 0.56 | PARD6B log2FC (Gene 84612): 0.88 | PPP1R9B log2FC (Gene 84687): -0.13 | SPATA22 log2FC (Gene 84690): 0.0637 | BEX2 log2FC (Gene 84707): 0.83 | PSRC1 log2FC (Gene 84722): 0.36 | KLHL22 log2FC (Gene 84861): 0.21 | TBRG1 log2FC (Gene 84897): 0.08 | MASTL log2FC (Gene 84930): 0.43 | LSM10 log2FC (Gene 84967): -1.02 | CCNB3 log2FC (Gene 85417): 0.31 | LRRCC1 log2FC (Gene 85444): 0.61 | DIXDC1 log2FC (Gene 85458): 0.018 | PNPT1 log2FC (Gene 87178): -0.10 | LMLN log2FC (Gene 89782): 0.82 | KLHL13 log2FC (Gene 90293): 0.07 | GADD45GIP1 log2FC (Gene 90480): -0.25 | SLFN11 log2FC (Gene 91607): -0.61 | CENPL log2FC (Gene 91687): -0.11 | CABLES1 log2FC (Gene 91768): 1.68 | SYCE1 log2FC (Gene 93426): -0.08 | ACTR8 log2FC (Gene 93973): 0.12 | TP53INP1 log2FC (Gene 94241): 0.89 | CDCA5 log2FC (Gene 113130): 0.0109 | TUBGCP5 log2FC (Gene 114791): 0.12
